Assay results as given in publication PMC2830424, “The Anopheles gambiae Odorant Binding Protein 1 (AgamOBP1) Mediates Indole Recognition in the Antennae of Female Mosquitoes” (PLoS ONE, 2010).

What was measured:
[1] = biological target: T1, AgamOBP1 (Odorant Binding Protein 1) (Anopheles gambiae, UniProt Q8T6S0); assay: fluorescence displacement of 1-NPN (screening assay); design: gene OBP-1; recombinant OBP1 (r-OBP1)
T1 sequence (Q8T6S0 20-144): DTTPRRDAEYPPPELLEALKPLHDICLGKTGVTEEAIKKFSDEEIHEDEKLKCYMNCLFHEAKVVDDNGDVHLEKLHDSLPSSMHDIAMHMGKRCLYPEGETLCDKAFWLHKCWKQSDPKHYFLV
Excerpt: fluorescence displacement of 1-NPN (screening assay) on AgamOBP1 (Odorant Binding Protein 1) | 3-methyl indole (skatole) […] also bound to r-OBP1 but with an apparently lower affinity

[2] = biological target: T1, AgamOBP1 (Odorant Binding Protein 1); assay: 3H-indole scintillation proximity (Ni-NTA FlashPlate) binding; confirmed by 1-NPN fluorescence displacement; design: gene OBP-1; purified 6xHis tagged r-OBP1
Excerpt: 3H-indole scintillation proximity (Ni-NTA FlashPlate) binding; confirmed by 1-NPN fluorescence displacement on AgamOBP1 (Odorant Binding Protein 1) | Binding curve of ^3H indole to r-OBP1 in Ni-NTA FlashPlates.

[3] = biological target: T1, AgamOBP1 (Odorant Binding Protein 1); assay: fluorescent reporter dye of the displacement assay (no Kd reported); design: gene OBP-1; recombinant OBP1 (r-OBP1)

SMILES: Cc1c[nH]c2ccccc12 [3-methyl indole]
- fluorescence displacement of 1-NPN (screening assay) [1]: 3-methyl indole (skatole) [...] also bound to r-OBP1 but with an apparently lower affinity

SMILES: c1ccc2[nH]ccc2c1 [indole]
- Kd [2]: 2300 nM

SMILES: c1ccc(Nc2cccc3ccccc23)cc1 [1-NPN, N-Phenyl-1-Naphthylamine]
- fluorescent reporter dye displacement [3]: increasing concentrations of indole displaced more 1-NPN dye from the AgamOBP1 binding pocket
